Reference: publication PMC3715890, “A Cyclic Peptide Inhibitor of HIF-1 Heterodimerization That Inhibits Hypoxia Signaling in Cancer Cells” (Journal of the American Chemical Society, 2013)

Tests used:
[1] = system: HIF-1 (HIF-dependent luciferase reporter, U2OS-HRE-luc cells); assay: HIF-1-dependent luciferase reporter assay, U2OS-HRE-luc; format: cell-based, human; settings: U2OS-HRE-luc
Protocol: The ability of P1–P3 to disrupt HIF-1 function in cells was assessed using a HIF-1-dependent luciferase reporter assay.[15],[21] The assay uses human osteosarcoma U2OS cells, stably transfected with a HIF-dependent luciferase reporter construct (U2OS-HRE-luc), where activation of HIF results in an increase in luciferase expression.[15]
(§1) Endogenous HIF-1 luciferase reporter assays were conducted as previously reported in U2OS-HRE-luc[15] and MCF-7 cells.[46] For plasmid-expressed HIF-α luciferase reporter assays, MCF-7 and U2OS cells were transiently transfected with plasmids expressing HIF-1α, HIF-2α, or a blank control (pcDNA3.1-HIF-1α, pcDNA3.1-HIF-2α, or pcDNA3.1), a renilla-encoding control (phRL-TK), and a HIF-dependent firefly luciferase reporter construct (pGL2-TK-HRE), using Transfast (Promega) according to the manufacturer’s instructions. After 24 h, cells were recovered and plated (4000 cells/well) in 96-well plates (Perkin-Elmer) and incubated for 5 h before either hypoxic or aerobic incubation in presence or absence of cyclic peptide inhibitors. Firefly and renilla activities were determined using Dual-Glo Reagent (Promega) according to the manufacturer’s instructions. The luciferase signal was normalized using the corresponding renilla values.
(§2) Cells were treated with the stated concentrations of inhibitor (P1, P2, or P3) and incubated in normoxia for 4 h, followed by incubation in a hypoxic environment. All manipulation of cell pellets (e.g., lysis, mRNA, and protein extraction) was conducted in a hypoxic environment.

[2] = system: VEGF protein in hypoxic MCF-7 cells; assay: VEGF protein ELISA, MCF-7; format: cell-based, human; settings: MCF-7, hypoxia, 100 μM
Protocol: (§3) Cells were treated with the stated concentrations of inhibitor (P1, P2, or P3) and incubated in normoxia for 4 h, followed by incubation in a hypoxic environment. All manipulation of cell pellets (e.g., lysis, mRNA, and protein extraction) was conducted in a hypoxic environment. […]
(§4) manufacturer’s instructions.
(§5) The loaded beads were washed and blocked with the provide buffers. […]
(§6) reagent (RPN2232, GE Healthcare).
(§7) Fluorescent binding assay
(§8) Scientific, catalogue no. […]
(§9) followed by washing with 3 × 200 µL ELISA buffer. 95 µL of EMSA buffer was added to […]
(§10) The fluorescence of each well at
(§11) Isothermal Titration Calorimetry […]
(§12) iTC200 system (GE Healthcare).
(§13) P2) was dissolved in the same buffer.
(§14) Control experiments for P1 or P2
(§15) Quantification of VGEF-A protein by ELISA […]
(§16) incubation in hypoxia for 16h. VEGF-A protein concentration was quantified by human

[3] = system: VEGF protein in hypoxic U2OS cells; assay: VEGF protein ELISA, U2OS; format: cell-based, human; settings: hypoxia, 100 μM
Protocol: as §3, §4, §5, §6, §7, §8, §9, §10, §11, §12, §13, §14, §15, §16

[4] = system: HIF-2 (HIF-dependent luciferase reporter, U2OS cells); assay: HIF-2 luciferase reporter assay, U2OS; format: cell-based, human; settings: transfected HIF-2α
Text: In addition, P1 had no effect on VEGF protein levels in hypoxic 786-O cells (Figure 6B). To further probe the effect of P1 on HIF-2, a luciferase reporter assay was developed and used. The assay was derived from the HIF-1 luciferase reporter assay detailed above (Figure 2C and D) and adapted for HIF-2 by replacing the plasmid encoding HIF-1α with the equivalent plasmid encoding HIF-2α. […] P2 and P3 also had no effect on HIF-2 in this assay (Figure S9).
as §1

[5] = system: CAIX mRNA in hypoxic MCF-7 cells; assay: CAIX mRNA qPCR, MCF-7; format: cell-based; settings: MCF-7, hypoxia, 100 μM
Protocol: as §2
Total RNA was extracted from MCF-7 and U2OS cells using RNeasy Mini Kit (74104, QIAGEN) and quantified using a Nanodrop ND-1000 spectrophotometer. Complementary DNA was synthesized in a 20 μL reaction containing 1 μg of total RNA, using qScript cDNA SuperMix (95048-100, Quanta Biosciences) according to the manufacturer’s instructions. Quantitative real-time PCRs were performed using Universal Taqman PCR master mix (Applied Biosystems) >and the Taqman gene expression assay of interest (Applied Biosystems) on an ABI StepOnePlus Real-Time PCR system (Applied Biosystems). Expression assays used in this study were HIF-1α (00936376_m1), VEGF-A (Hs00173626_m1), CAIX (Hs00154208_m1), LOX (Hs00942480_m1), HIF2α (Hs01026149_m1), CITED2 (Hs01897804_s1), and 18S (Hs99999901_m1). All expression values were normalized using expression of 18S.

[6] = system: endogenous HIF-1α/HIF-1β interaction in MCF-7 cells; assay: In situ proximity ligation assay (PLA), MCF-7; format: cell-based; settings: 100 μM, MCF-7, hypoxia (1% O2) 4 h
Text: The effect of P1 on the endogenous HIF-1α/HIF-1β interaction in intact cells was directly probed using an in situ proximity ligation assay (PLA);[30] primary antibodies (HIF-1α and HIF-1β here) raised in different species are bound by specific secondary antibodies that are tagged with a short DNA strand. The DNA on the interacting PLA probes forms a mini-plasmid that is amplified and bound by a red fluorescent dye. The HIF-1α/HIF-1β interaction is thus visualized as red dots in the DAPI-stained nuclei of MCF-7 and U2OS cells (Figure 4). We observed an increase in PLA signal in MCF-7 cells incubated in hypoxia (1% O2) for 4 h, indicating the expected formation of the HIF-1 dimer in hypoxia (Figure 4, panel 1 versus panel 2). […] The observed effect is not due to a reduction in HIF-1α by P1 (Western blot inset in Figure 4) and thus may be solely attributed to disruption of HIF-1α/HIF-1β dimers.
as §2
Duolink proximity ligation assay was conducted using the in situ PLA Kit (O-Link Bioscience, Uppsala, Sweden) according to the manufacturer’s instructions. […]

Substance: Tat-cyclo-CRLMVL (head to tail) [P2, cyclo-CRLMVL tagged with Tat peptide via a disulfide bond; used as negative control]
- effect on luciferase reporter in hypoxia ([1]; hypoxia (1% O2)): did not show an effect
- effect on luciferase reporter in normoxia (basal) ([1]; normoxia): did not show an effect
- VEGF protein level [2]: has no effect in either cell line
- VEGF protein level [3]: has no effect in either cell line
- effect on HIF-2 luciferase reporter signal [4]: do not affect
- CAIX mRNA [5]: no effect
- HIF-1 PLA signal [6]: did not have any effect on the PLA signal
